Results as given in US20090227533A1, “miR-34 Regulated Genes and Pathways as Targets for Therapeutic Intervention” (priority 2007, published 2009).

System: H460 lung cancer cells
Assay: Alamar Blue proliferation assay with pair-wise miRNA combinations
Assay type: cell-based, human
From the text: miRNAs function in multiple pathways controlling multiple cellular processes. Cancer cells frequently show aberrations in several different pathways, which determine their oncogenic properties. […] The inventors assessed the efficacy of pair-wise miRNA combinations, administering hsa-miR-34a concurrently with either hsa-miR-124a, hsa-miR-126, hsa-miR-147, hsa-let-7b, hsa-let-7c or hsa-let-7g (Pre-miR™ miRNA, Ambion cat. no. AM17100). H460 lung cancer cells were transiently reverse-transfected in triplicate with each miRNA at a final concentration of 300 pM, resulting in 600 pM of total oligonucleotide. For negative controls, 600 pM of Pre-miR™ microRNA Precursor Molecule-Negative Control #2 (Ambion cat. no. AM17111) were used. To correlate the effect of various combinations with the effect of the sole miRNA, each miRNA at 300 pM was also combined with 300 pM negative control miRNA. Reverse transfection was carried out using the following parameters: 7,000 cells per 96 well, 0.15 μl Lipofectamine™ 2000 (Invitrogen) in 20 μl OptiMEM (Invitrogen), 100 μl total transfection volume. […] Cells were harvested 72 hours after transfection and subjected to Alamar Blue assays (Invitrogen). Percent proliferation values from the Alamar Blue assays were normalized to those obtained from cells treated with 600 pM negative control miRNA. Data are expressed as % proliferation relative to negative control miRNA-treated cells (Table 8, FIG. 3).
Additive activity of pair-wise combinations (e.g., hsa-miR-34a plus hsa-miR-147) is defined as an activity that is greater than the sole activity of each miRNA (e.g., the activity of hsa-miR-34a plus hsa-miR-147 is greater than that observed for hsa-miR-34a plus NC and the activity of hsa-miR-34a plus hsa-miR-147 is greater than that observed for hsa-miR-147 plus NC). Synergistic activity of pair-wise combinations is defined as an activity that is greater than the sum of the sole activity of each miRNA (e.g., the activity of hsa-miR-34a plus hsa-let-7g is greater than that observed for the sum of the activity of hsa-miR-34a plus NC and the activity of hsa-let-7g plus NC). […] The combinatorial use of miRNAs represents a potentially useful therapy for cancer and other diseases.

## hsa-miR-34a: synthetic miRNA; mature sequence UGGCAGUGUCUUAGCUGGUUGUU (MIMAT0000255; SEQ ID NO:1) (synthetic miRNA, chemistry not given here)
300 pM hsa-miR-34a plus 300 pM negative control miRNA
  reduction of proliferation: 0.42%
Each miRNA 300 pM (600 pM total), 72 h, normalized to 600 pM negative control miRNA
  % proliferation: 99.58%
